Test results published in PubChem BioAssay (NCI).
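Protocol summary: plate cells (96-well), add compound at 5 concentrations, incubate 48 h, interpolate endpoints linearly. GI50 is the concentration that inhibits growth by half. TGI is the concentration that stops growth completely.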

Key:
Assay in all cases: NCI anticancer screen, dose series, 48 h
EKVX NSCLC = system: EKVX NSCLC
HCT-15 colon = system: HCT-15 colon
HS 578T breast = system: HS 578T breast
A498 renal = system: A498 renal
A549 NSCLC = system: A549 NSCLC
MDA-MB-231 breast = system: MDA-MB-231 breast
COLO 205 colon = system: COLO 205 colon
SK-MEL-5 melanoma = system: SK-MEL-5 melanoma
CCRF-CEM leukemia = system: CCRF-CEM leukemia
HL-60(TB) leukemia = system: HL-60(TB) leukemia
KM12 colon = system: KM12 colon
UACC-62 melanoma = system: UACC-62 melanoma
NCI-H522 lung = system: NCI-H522 lung
T-47D breast = system: T-47D breast
HT29 colon = system: HT29 colon
HOP-62 NSCLC = system: HOP-62 NSCLC
SK-OV-3 ovarian = system: SK-OV-3 ovarian
MCF7 breast = system: MCF7 breast
SNB-19 CNS = system: SNB-19 CNS
HOP-92 NSCLC = system: HOP-92 NSCLC
MALME-3M melanoma = system: MALME-3M melanoma
SF-539 CNS = system: SF-539 CNS
ACHN renal = system: ACHN renal
IGROV1 ovarian = system: IGROV1 ovarian
SK-MEL-2 melanoma = system: SK-MEL-2 melanoma
U251 CNS = system: U251 CNS
OVCAR-5 ovarian = system: OVCAR-5 ovarian
UO-31 renal = system: UO-31 renal
SN12C renal = system: SN12C renal
TK-10 renal = system: TK-10 renal
MOLT-4 leukemia = system: MOLT-4 leukemia
DU-145 prostate = system: DU-145 prostate
K-562 leukemia = system: K-562 leukemia
MDA-MB-435 = system: MDA-MB-435
SF-268 CNS = system: SF-268 CNS
RXF 393 renal = system: RXF 393 renal
BT-549 breast = system: BT-549 breast
OVCAR-3 ovarian = system: OVCAR-3 ovarian
SF-295 CNS = system: SF-295 CNS
PC-3 prostate = system: PC-3 prostate
NCI-H460 lung = system: NCI-H460 lung
OVCAR-8 ovarian = system: OVCAR-8 ovarian
SNB-75 CNS = system: SNB-75 CNS
CAKI-1 renal = system: CAKI-1 renal
HCT-116 colon = system: HCT-116 colon
NCI-H226 lung = system: NCI-H226 lung
NCI/ADR-RES ovarian = system: NCI/ADR-RES ovarian
SR leukemia = system: SR leukemia
NCI-H23 lung = system: NCI-H23 lung
LOX IMVI melanoma = system: LOX IMVI melanoma
786-0 renal = system: 786-0 renal
M14 melanoma = system: M14 melanoma
SK-MEL-28 melanoma = system: SK-MEL-28 melanoma
SW-620 colon = system: SW-620 colon
UACC-257 melanoma = system: UACC-257 melanoma
OVCAR-4 ovarian = system: OVCAR-4 ovarian
HCC-2998 colon = system: HCC-2998 colon

Structure (SMILES): COc1ccc(-c2cc(-c3ccccc3)nc(SCCCC(=O)NO)n2)cc1OC
- GI50 (EKVX NSCLC): 1180 nM
- TGI (EKVX NSCLC): 8.6 µM
- GI50 (HCT-15 colon): 406 nM
- TGI (HCT-15 colon): 2620 nM
- GI50 (HS 578T breast): 1410 nM
- TGI (HS 578T breast): 9.44 µM
- GI50 (A498 renal): 345 nM
- TGI (A498 renal): 1720 nM
- GI50 (A549 NSCLC): 2060 nM
- TGI (A549 NSCLC): 7.05 µM
- GI50 (MDA-MB-231 breast): 1560 nM
- TGI (MDA-MB-231 breast): 8.27 µM
- GI50 (COLO 205 colon): 2100 nM
- TGI (COLO 205 colon): 5.95 µM
- GI50 (SK-MEL-5 melanoma): 631 nM
- TGI (SK-MEL-5 melanoma): 2090 nM
- GI50 (CCRF-CEM leukemia): 398 nM
- TGI (CCRF-CEM leukemia): 11.1 µM
- GI50 (HL-60(TB) leukemia): 3.24 µM
- TGI (HL-60(TB) leukemia): 11.7 µM
- GI50 (KM12 colon): 2830 nM
- TGI (KM12 colon): 11 µM
- GI50 (UACC-62 melanoma): 1060 nM
- TGI (UACC-62 melanoma): 3.11 µM
- GI50 (NCI-H522 lung): 1320 nM
- TGI (NCI-H522 lung): 5.36 µM
- GI50 (T-47D breast): 824 nM
- TGI (T-47D breast): 9.39 µM
- GI50 (HT29 colon): 2080 nM
- TGI (HT29 colon): 7.06 µM
- GI50 (HOP-62 NSCLC): 626 nM
- TGI (HOP-62 NSCLC): 3.38 µM
- GI50 (SK-OV-3 ovarian): 1690 nM
- TGI (SK-OV-3 ovarian): 5.05 µM
- GI50 (MCF7 breast): 2300 nM
- TGI (MCF7 breast): 9.63 µM
- GI50 (SNB-19 CNS): 2290 nM
- TGI (SNB-19 CNS): 10.9 µM
- GI50 (HOP-92 NSCLC): 1140 nM
- TGI (HOP-92 NSCLC): 3.99 µM
- GI50 (MALME-3M melanoma): 761 nM
- TGI (MALME-3M melanoma): 5.71 µM
- GI50 (SF-539 CNS): 1350 nM
- TGI (SF-539 CNS): 3.38 µM
- GI50 (ACHN renal): 410 nM
- TGI (ACHN renal): 1810 nM
- GI50 (IGROV1 ovarian): 1640 nM
- TGI (IGROV1 ovarian): 5.05 µM
- GI50 (SK-MEL-2 melanoma): 1760 nM
- TGI (SK-MEL-2 melanoma): 7.39 µM
- GI50 (U251 CNS): 1510 nM
- TGI (U251 CNS): 7.69 µM
- GI50 (OVCAR-5 ovarian): 1160 nM
- TGI (OVCAR-5 ovarian): 5.43 µM
- GI50 (UO-31 renal): 338 nM
- TGI (UO-31 renal): 1480 nM
- GI50 (SN12C renal): 1540 nM
- TGI (SN12C renal): 6.15 µM
- GI50 (TK-10 renal): 409 nM
- TGI (TK-10 renal): 8.87 µM
- GI50 (MOLT-4 leukemia): 832 nM
- TGI (MOLT-4 leukemia): 11.4 µM
- GI50 (DU-145 prostate): 1410 nM
- TGI (DU-145 prostate): 6.85 µM
- GI50 (K-562 leukemia): 812 nM
- TGI (K-562 leukemia): > 100 µM
- GI50 (MDA-MB-435): 1740 nM
- TGI (MDA-MB-435): 6.28 µM
- GI50 (SF-268 CNS): 2150 nM
- TGI (SF-268 CNS): 5.68 µM
- GI50 (RXF 393 renal): 1010 nM
- TGI (RXF 393 renal): 2780 nM
- GI50 (BT-549 breast): 3.32 µM
- TGI (BT-549 breast): 12.4 µM
- GI50 (OVCAR-3 ovarian): 1320 nM
- TGI (OVCAR-3 ovarian): 5.36 µM
- GI50 (SF-295 CNS): 887 nM
- TGI (SF-295 CNS): 2510 nM
- GI50 (PC-3 prostate): 1390 nM
- TGI (PC-3 prostate): 5.62 µM
- GI50 (NCI-H460 lung): 621 nM
- TGI (NCI-H460 lung): 9.81 µM
- GI50 (OVCAR-8 ovarian): 490 nM
- TGI (OVCAR-8 ovarian): 11.9 µM
- GI50 (SNB-75 CNS): 1090 nM
- TGI (SNB-75 CNS): 4.51 µM
- GI50 (CAKI-1 renal): 452 nM
- TGI (CAKI-1 renal): 2830 nM
- GI50 (HCT-116 colon): 701 nM
- TGI (HCT-116 colon): 10 µM
- GI50 (NCI-H226 lung): 1690 nM
- TGI (NCI-H226 lung): 5.54 µM
- GI50 (NCI/ADR-RES ovarian): 793 nM
- TGI (NCI/ADR-RES ovarian): 4.35 µM
- GI50 (SR leukemia): 339 nM
- TGI (SR leukemia): 20.4 µM
- GI50 (NCI-H23 lung): 1570 nM
- TGI (NCI-H23 lung): 4.8 µM
- GI50 (LOX IMVI melanoma): 1070 nM
- TGI (LOX IMVI melanoma): 2440 nM
- GI50 (786-0 renal): 1280 nM
- TGI (786-0 renal): 5.02 µM
- GI50 (M14 melanoma): 1020 nM
- TGI (M14 melanoma): 2820 nM
- GI50 (SK-MEL-28 melanoma): 1230 nM
- TGI (SK-MEL-28 melanoma): 3.66 µM
- GI50 (SW-620 colon): 539 nM
- TGI (SW-620 colon): 11.3 µM
- GI50 (UACC-257 melanoma): 1430 nM
- TGI (UACC-257 melanoma): 7.94 µM
- GI50 (OVCAR-4 ovarian): 1680 nM
- TGI (OVCAR-4 ovarian): 7.76 µM
- GI50 (HCC-2998 colon): 1440 nM
- TGI (HCC-2998 colon): 3.59 µM
